Assay results as given in the kinase profiling compilation of Christmann-Franck et al. (2016).

Key:
Assay in all cases: radiometric filter-binding kinase assay, Kinase HotSpot
Settings in all cases: compound 0.5 µM; ATP 10 µM
SIK2 (human) = SIK2 (human) (UniProt Q9H0K1)
INSR (human) = INSR (human) (UniProt P06213)
TAOK1 (human) = TAOK1 (human) (UniProt Q7L7X3)
STK33 (human) = STK33 (human) (UniProt Q9BYT3)
MAP3K14 (human) = MAP3K14 (human) (UniProt Q99558)
PLK3 (human) = PLK3 (human) (UniProt Q9H4B4)
FGFR2 (human) = FGFR2 (human) (UniProt P21802)
HIPK3 (human) = HIPK3 (human) (UniProt Q9H422)
SYK (human) = SYK (human) (UniProt P43405)
PLK1 (human) = PLK1 (human) (UniProt P53350)
PLK1 (human), sequence (P53350 whole entry, looked up): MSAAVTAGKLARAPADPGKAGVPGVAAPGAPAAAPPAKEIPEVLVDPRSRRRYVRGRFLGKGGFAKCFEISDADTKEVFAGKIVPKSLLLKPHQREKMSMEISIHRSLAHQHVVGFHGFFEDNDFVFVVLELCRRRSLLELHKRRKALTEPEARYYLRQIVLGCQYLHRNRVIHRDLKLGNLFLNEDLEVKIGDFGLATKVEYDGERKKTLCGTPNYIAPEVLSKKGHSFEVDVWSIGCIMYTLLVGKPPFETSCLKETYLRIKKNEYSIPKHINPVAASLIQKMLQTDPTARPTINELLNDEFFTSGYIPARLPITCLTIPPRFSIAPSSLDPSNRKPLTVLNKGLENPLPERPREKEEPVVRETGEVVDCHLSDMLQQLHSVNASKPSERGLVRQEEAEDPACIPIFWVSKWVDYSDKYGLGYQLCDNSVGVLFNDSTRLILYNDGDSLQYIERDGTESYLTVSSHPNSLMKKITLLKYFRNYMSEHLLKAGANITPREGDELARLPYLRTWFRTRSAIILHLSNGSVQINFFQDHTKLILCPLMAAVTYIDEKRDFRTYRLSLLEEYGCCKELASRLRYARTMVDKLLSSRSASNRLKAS

SLK (human) = SLK (human) (UniProt Q9H2G2)
CSNK1G2 (human) = CSNK1G2 (human) (UniProt P78368)
CDK1 CCNB1 (human) = CDK1 CCNB1 (human) (UniProt P06493+P14635)
CDC42BPA (human) = CDC42BPA (human) (UniProt Q5VT25)
CDC42BPA (human), sequence (Q5VT25 whole entry, looked up): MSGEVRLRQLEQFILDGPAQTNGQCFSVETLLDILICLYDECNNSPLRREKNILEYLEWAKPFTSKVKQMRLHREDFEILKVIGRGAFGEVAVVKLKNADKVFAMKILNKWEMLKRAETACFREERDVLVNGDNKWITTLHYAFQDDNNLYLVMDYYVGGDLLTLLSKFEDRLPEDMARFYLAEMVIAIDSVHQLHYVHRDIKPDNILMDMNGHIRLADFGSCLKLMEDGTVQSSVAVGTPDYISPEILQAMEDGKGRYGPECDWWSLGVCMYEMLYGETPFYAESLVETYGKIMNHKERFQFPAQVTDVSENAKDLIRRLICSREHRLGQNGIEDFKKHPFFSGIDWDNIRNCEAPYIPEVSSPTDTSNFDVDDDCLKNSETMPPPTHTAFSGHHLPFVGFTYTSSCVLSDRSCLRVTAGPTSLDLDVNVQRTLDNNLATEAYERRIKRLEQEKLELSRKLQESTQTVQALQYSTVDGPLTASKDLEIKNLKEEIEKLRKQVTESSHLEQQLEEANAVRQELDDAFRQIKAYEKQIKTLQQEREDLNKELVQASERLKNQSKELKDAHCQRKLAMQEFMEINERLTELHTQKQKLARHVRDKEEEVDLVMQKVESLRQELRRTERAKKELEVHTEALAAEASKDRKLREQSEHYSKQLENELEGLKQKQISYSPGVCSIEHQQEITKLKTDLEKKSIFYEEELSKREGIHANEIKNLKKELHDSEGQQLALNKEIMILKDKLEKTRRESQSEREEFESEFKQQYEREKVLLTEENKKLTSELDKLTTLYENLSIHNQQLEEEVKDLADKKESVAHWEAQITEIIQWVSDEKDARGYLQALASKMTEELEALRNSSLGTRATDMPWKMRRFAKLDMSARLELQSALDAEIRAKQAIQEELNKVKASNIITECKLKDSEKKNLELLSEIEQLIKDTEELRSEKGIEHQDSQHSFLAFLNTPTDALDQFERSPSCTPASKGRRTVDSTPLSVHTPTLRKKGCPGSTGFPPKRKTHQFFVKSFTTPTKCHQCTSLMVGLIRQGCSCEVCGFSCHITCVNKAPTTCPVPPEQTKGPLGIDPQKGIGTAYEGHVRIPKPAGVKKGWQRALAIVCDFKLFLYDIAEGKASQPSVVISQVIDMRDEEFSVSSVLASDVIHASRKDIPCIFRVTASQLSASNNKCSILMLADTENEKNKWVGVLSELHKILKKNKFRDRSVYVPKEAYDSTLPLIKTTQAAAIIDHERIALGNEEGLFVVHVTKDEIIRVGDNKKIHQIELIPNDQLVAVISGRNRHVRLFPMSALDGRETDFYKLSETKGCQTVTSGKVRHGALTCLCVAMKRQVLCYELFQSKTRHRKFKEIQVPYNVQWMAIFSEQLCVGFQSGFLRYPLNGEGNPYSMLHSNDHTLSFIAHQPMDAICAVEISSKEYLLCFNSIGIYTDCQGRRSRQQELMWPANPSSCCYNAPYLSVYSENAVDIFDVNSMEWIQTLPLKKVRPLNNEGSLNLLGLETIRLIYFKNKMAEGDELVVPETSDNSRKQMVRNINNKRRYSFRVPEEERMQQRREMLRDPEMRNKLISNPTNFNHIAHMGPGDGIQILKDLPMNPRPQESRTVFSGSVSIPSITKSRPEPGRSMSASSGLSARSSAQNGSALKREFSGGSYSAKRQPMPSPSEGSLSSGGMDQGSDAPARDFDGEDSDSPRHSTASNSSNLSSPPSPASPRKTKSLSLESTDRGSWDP

SRPK3 (human) = SRPK3 (human) (UniProt Q9UPE1)
BRSK2 (human) = BRSK2 (human) (UniProt Q8IWQ3)
CAMK1 (human) = CAMK1 (human) (UniProt Q14012)
TYRO3 (human) = TYRO3 (human) (UniProt Q06418)
[1] = system: PRKCQ (human), Q04759 [P330L]
HCK (human) = HCK (human) (UniProt P08631)
CSNK1G3 (human) = CSNK1G3 (human) (UniProt Q9Y6M4)
CSNK1G3 (human), sequence (Q9Y6M4 whole entry, looked up): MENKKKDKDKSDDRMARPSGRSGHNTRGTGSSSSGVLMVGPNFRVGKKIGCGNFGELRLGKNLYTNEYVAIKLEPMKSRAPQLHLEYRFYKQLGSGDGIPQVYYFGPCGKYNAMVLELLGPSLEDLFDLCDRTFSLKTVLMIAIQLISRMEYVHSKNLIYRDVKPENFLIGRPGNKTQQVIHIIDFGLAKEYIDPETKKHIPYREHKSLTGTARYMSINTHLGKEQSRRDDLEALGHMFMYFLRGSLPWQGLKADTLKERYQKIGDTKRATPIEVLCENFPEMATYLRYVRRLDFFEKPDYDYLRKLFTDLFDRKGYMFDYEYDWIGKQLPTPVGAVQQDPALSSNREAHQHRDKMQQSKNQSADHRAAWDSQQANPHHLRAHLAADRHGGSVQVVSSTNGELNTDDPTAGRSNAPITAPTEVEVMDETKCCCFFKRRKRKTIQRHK

CDK1 CCNA2 (human) = CDK1 CCNA2 (human) (UniProt P06493+P20248)
PRKCI (human) = PRKCI (human) (UniProt P41743)
MATK (human) = MATK (human) (UniProt P42679)
CDK9 CCNT1 (human) = CDK9 CCNT1 (human) (UniProt P50750+O60563)
CDK9 CCNT1 (human), sequence (O60563 whole entry, looked up): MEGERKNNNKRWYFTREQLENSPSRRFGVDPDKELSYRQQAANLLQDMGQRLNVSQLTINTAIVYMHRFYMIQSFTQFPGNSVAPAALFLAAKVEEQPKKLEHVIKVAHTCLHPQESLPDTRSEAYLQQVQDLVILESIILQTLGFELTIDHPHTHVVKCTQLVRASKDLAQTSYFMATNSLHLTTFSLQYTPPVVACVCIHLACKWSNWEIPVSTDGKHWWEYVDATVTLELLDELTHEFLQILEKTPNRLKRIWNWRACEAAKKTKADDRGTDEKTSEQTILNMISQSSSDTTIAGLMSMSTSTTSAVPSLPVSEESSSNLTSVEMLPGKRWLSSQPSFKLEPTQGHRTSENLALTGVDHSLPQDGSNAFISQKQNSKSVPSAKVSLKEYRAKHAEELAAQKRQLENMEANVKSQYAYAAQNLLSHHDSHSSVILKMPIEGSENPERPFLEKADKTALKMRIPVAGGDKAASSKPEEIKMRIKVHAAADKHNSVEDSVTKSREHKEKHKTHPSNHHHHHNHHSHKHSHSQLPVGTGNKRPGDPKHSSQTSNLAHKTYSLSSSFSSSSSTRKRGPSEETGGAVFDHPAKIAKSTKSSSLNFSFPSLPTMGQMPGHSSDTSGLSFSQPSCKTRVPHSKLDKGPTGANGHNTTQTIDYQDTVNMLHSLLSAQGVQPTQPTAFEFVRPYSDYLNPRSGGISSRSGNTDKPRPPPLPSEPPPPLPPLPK
CDK9 CCNT1 (human), sequence (P50750 whole entry, looked up): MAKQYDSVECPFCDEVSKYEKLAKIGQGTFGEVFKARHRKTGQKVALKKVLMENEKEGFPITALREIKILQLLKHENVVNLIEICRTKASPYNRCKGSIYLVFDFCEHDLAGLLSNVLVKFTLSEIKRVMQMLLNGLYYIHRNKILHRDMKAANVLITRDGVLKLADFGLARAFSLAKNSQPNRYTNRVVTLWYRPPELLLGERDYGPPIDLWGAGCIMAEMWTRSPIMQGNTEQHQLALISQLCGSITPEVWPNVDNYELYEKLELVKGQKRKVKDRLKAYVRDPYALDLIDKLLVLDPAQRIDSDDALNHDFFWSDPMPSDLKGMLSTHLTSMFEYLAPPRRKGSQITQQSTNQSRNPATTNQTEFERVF

RPS6KA5 KD2 (human) = RPS6KA5 KD2 (human) (UniProt O75582)
EPHA5 (human) = EPHA5 (human) (UniProt P54756)
CDK6 CCND3 (human) = CDK6 CCND3 (human) (UniProt P30281+Q00534)
PAK3 (human) = PAK3 (human) (UniProt O75914)
GRK5 (human) = GRK5 (human) (UniProt P34947)
CAMK1D (human) = CAMK1D (human) (UniProt Q8IU85)
STK17A (human) = STK17A (human) (UniProt Q9UEE5)
TGFBR2 (human) = TGFBR2 (human) (UniProt P37173)
TBK1 (human) = TBK1 (human) (UniProt Q9UHD2)
BTK (human) = BTK (human) (UniProt Q06187)
PKN1 (human) = PKN1 (human) (UniProt Q16512)
IGF1R (human) = IGF1R (human) (UniProt P08069)
ADRBK1 (human) = ADRBK1 (human) (UniProt P25098)
NTRK2 (human) = NTRK2 (human) (UniProt Q16620)
CDK4 CCND3 (human) = CDK4 CCND3 (human) (UniProt P30281+P11802)
PRKX (human) = PRKX (human) (UniProt P51817)

TAOK1 (human), sequence (Q7L7X3 whole entry, looked up): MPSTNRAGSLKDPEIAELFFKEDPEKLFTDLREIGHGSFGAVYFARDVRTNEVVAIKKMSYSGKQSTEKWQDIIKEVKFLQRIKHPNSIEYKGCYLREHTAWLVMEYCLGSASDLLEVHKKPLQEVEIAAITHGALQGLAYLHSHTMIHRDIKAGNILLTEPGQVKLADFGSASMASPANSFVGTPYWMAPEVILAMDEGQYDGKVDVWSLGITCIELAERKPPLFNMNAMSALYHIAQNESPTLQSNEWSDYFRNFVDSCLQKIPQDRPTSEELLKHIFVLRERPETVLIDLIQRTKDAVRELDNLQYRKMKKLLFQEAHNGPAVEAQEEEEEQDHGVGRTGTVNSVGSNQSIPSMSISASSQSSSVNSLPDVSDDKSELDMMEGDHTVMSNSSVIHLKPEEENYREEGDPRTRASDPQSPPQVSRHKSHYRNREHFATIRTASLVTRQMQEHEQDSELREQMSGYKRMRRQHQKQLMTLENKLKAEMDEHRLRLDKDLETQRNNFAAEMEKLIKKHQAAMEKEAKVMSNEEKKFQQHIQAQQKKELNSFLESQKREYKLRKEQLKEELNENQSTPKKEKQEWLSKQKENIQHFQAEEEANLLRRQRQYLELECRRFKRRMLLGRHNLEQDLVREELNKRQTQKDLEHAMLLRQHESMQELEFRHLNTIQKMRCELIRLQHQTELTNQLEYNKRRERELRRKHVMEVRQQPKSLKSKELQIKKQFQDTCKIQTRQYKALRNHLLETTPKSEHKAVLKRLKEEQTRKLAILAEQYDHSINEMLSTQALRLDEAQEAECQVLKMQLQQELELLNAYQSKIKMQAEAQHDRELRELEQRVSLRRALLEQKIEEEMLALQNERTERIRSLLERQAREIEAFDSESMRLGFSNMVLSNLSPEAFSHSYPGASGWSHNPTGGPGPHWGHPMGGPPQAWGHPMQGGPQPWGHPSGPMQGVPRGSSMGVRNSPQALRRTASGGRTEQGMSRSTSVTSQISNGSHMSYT

Q: With `c1ccc2c(-c3ccncc3)c[nH]c2c1` as the molecule, how does the residual activity (SIK2 (human)) read?
A: 90.5%

Q: What about the residual activity (INSR (human)) of the same molecule?
A: 90.5%

Q: What about the residual activity (TAOK1 (human)) of the same molecule?
A: 88.4%

Q: What about the residual activity (STK33 (human)) of the same molecule?
A: 97.3%

Q: What about the residual activity (MAP3K14 (human)) of the same molecule?
A: 112%

Q: And the residual activity (PLK3 (human))?
A: 95.3%

Q: What about the residual activity (FGFR2 (human)) of the same molecule?
A: 105%

Q: What about the residual activity (HIPK3 (human)) of the same molecule?
A: 107%

Q: What about the residual activity (SYK (human)) of the same molecule?
A: 98.6%

Q: What about the residual activity (PLK1 (human)) of the same molecule?
A: 102%

Q: What about the residual activity (SLK (human)) of the same molecule?
A: 103%

Q: And the residual activity (CSNK1G2 (human))?
A: 95%

Q: And the residual activity (CDK1 CCNB1 (human))?
A: 96%

Q: What about the residual activity (CDC42BPA (human)) of the same molecule?
A: 99.9%

Q: And the residual activity (SRPK3 (human))?
A: 96%

Q: And the residual activity (BRSK2 (human))?
A: 98.6%

Q: And the residual activity (CAMK1 (human))?
A: 108%

Q: What about the residual activity (TYRO3 (human)) of the same molecule?
A: 98.1%

Q: What about the residual activity [1] of the same molecule?
A: 125%

Q: And the residual activity (HCK (human))?
A: 99.5%

Q: What about the residual activity (CSNK1G3 (human)) of the same molecule?
A: 108%

Q: And the residual activity (CDK1 CCNA2 (human))?
A: 90.6%

Q: What about the residual activity (PRKCI (human)) of the same molecule?
A: 82.4%

Q: And the residual activity (MATK (human))?
A: 93.9%

Q: And the residual activity (CDK9 CCNT1 (human))?
A: 75.2%

Q: And the residual activity (RPS6KA5 KD2 (human))?
A: 96.7%

Q: What about the residual activity (EPHA5 (human)) of the same molecule?
A: 99.4%

Q: What about the residual activity (CDK6 CCND3 (human)) of the same molecule?
A: 101%

Q: And the residual activity (PAK3 (human))?
A: 102%

Q: What about the residual activity (GRK5 (human)) of the same molecule?
A: 99.2%

Q: What about the residual activity (CAMK1D (human)) of the same molecule?
A: 107%

Q: What about the residual activity (STK17A (human)) of the same molecule?
A: 93%

Q: And the residual activity (TGFBR2 (human))?
A: 119%

Q: And the residual activity (TBK1 (human))?
A: 93.4%

Q: What about the residual activity (BTK (human)) of the same molecule?
A: 104%

Q: And the residual activity (PKN1 (human))?
A: 66.4%

Q: And the residual activity (IGF1R (human))?
A: 105%

Q: What about the residual activity (ADRBK1 (human)) of the same molecule?
A: 97.7%

Q: What about the residual activity (NTRK2 (human)) of the same molecule?
A: 107%

Q: And the residual activity (CDK4 CCND3 (human))?
A: 102%

Q: What about the residual activity (PRKX (human)) of the same molecule?
A: 54.3%
